PubChem BioAssay (NCI)
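Exposure lasted 48 hours, with cells grown in 96-well plates and compounds tested at five concentrations. TGI marks complete inhibition of growth.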

Columns and labels:
Test in all cases: NCI tumour cell line growth inhibition, 48 h
RPMI-8226 leukemia = tested on: RPMI-8226 leukemia
K-562 leukemia = tested on: K-562 leukemia
EKVX NSCLC = tested on: EKVX NSCLC
COLO 205 colon = tested on: COLO 205 colon
MCF7 breast = tested on: MCF7 breast
NCI-H23 lung = tested on: NCI-H23 lung
A498 renal = tested on: A498 renal
UO-31 renal = tested on: UO-31 renal
MOLT-4 leukemia = tested on: MOLT-4 leukemia
MDA-MB-231 breast = tested on: MDA-MB-231 breast
U251 CNS = tested on: U251 CNS
OVCAR-4 ovarian = tested on: OVCAR-4 ovarian
786-0 renal = tested on: 786-0 renal
HS 578T breast = tested on: HS 578T breast
BT-549 breast = tested on: BT-549 breast
OVCAR-5 ovarian = tested on: OVCAR-5 ovarian
LOX IMVI melanoma = tested on: LOX IMVI melanoma
SF-268 CNS = tested on: SF-268 CNS
SNB-19 CNS = tested on: SNB-19 CNS

SMILES	TGI (RPMI-8226 leukemia) [µM]	TGI (K-562 leukemia) [µM]	TGI (EKVX NSCLC) [µM]	TGI (COLO 205 colon) [µM]	TGI (MCF7 breast) [µM]	TGI (NCI-H23 lung) [µM]	TGI (A498 renal) [µM]	TGI (UO-31 renal) [µM]	TGI (MOLT-4 leukemia) [µM]	TGI (MDA-MB-231 breast) [µM]	TGI (U251 CNS) [µM]	TGI (OVCAR-4 ovarian) [µM]	TGI (786-0 renal) [µM]	TGI (HS 578T breast) [µM]	TGI (BT-549 breast) [µM]	TGI (OVCAR-5 ovarian) [µM]	TGI (LOX IMVI melanoma) [µM]	TGI (SF-268 CNS) [µM]	TGI (SNB-19 CNS) [µM]
CO/C(N)=C(\C#N)N=Cc1ccco1	> 100	> 100	> 100	> 100	> 100	> 100	> 100	> 100	> 100	> 100	> 100	> 100	> 100	> 100	> 100	> 100	> 100	> 100	–
COc1ccc(/C=C2\CCC(C)C3C2=NN(c2ccccc2)C3c2ccc(OC)c(OC)c2)cc1OC (stereo unspecified)	4.3	18.5	6.9	17.2	21.8	16.9	12.3	22.1	11	12.5	> 100	–	14.5	> 100	21.5	24	8.63	30.4	36.2
COc1ccc(C(=O)c2sc(N(C)C)nc2-c2ccccc2)cc1	> 100	> 100	–	> 100	> 100	> 100	93.1	> 100	> 100	> 100	> 100	> 100	> 100	> 100	75.6	> 100	> 100	> 100	> 100
CC(C)(C)C(=O)OCOP(=O)(OCOC(=O)C(C)(C)C)OCC1OC(n2ccc(=O)[nH]c2=O)C(N=[N+]=[N-])C1O (stereo unspecified)	5.22	> 100	20.6	13.5	14.7	16.3	–	4.58	31.4	21.1	10.5	14	10.3	7.64	14.9	16.1	3.44	17.8	25.7
CCOC(=O)CCCNC(=O)CCCCC(=O)N(C)C	> 100	> 100	> 100	> 100	> 100	> 100	> 100	> 100	> 100	> 100	> 100	–	> 100	> 100	> 100	> 100	> 100	> 100	> 100
COC(=O)c1cc(C)ccc1C1CN=NC12Cc1ccc(C)cc1C2=O (stereo unspecified)	–	> 100	> 100	29.3	85.8	> 100	91.3	> 100	80.6	> 100	> 100	> 100	> 100	> 100	> 100	> 100	> 100	> 100	> 100
O=c1cc(N2CCNCC2)nc2ccccn12	> 100	> 100	> 100	> 100	> 100	> 100	> 100	> 100	> 100	> 100	> 100	–	> 100	> 100	> 100	> 100	> 100	> 100	> 100
